Results on three compounds are retold here after patent US11357971B2, “Ion pump with hyperbranched polymers” (OBOE IPR AB, priority 2016, dated 2022).

Experiment [1] has as its system DII-Venus auxin-response reporter. Nature of the experiment: DII-Venus fluorescent auxin-response reporter seedlings, OEIP delivery. Conditions: for effect on DII-Venus fluorescence intensity: OEIP delivery to root tip, signal falls in presence of auxin. The experiment is classed as in vivo, Arabidopsis thaliana. The source says:
The DII-Venus reporter is characterized by absence or reduction in fluorescent signal intensity in the presence of auxin or increasing auxin levels, respectively. Conversely, in DR5, the presence or gain of fluorescent signal intensity indicates presence or increase of auxin concentrations, respectively. The relative auxin abundance is visualized faster by DII-Venus than by DR5^15, because the DII-Venus signal relies on a protein degradation mechanism rather than the slower transcriptional and translational production mechanisms of DR5.
Using DII-Venus seedlings, the fluorescent signal intensity was monitored and onset of strong fluorescence reduction was observed between 30 to 60 min (FIG. 5a,b).
To this end, seeds of both genotypes and wild-type Col-0 were surface sterilized with 70% ethanol for 1 min, incubated in pool cleaner (Biltema, Sweden; one tablet per 2000 ml H2O) for 12 min, and washed four times with sterile, distilled water (dH2O). After 3 days at 4° C. in the dark, seeds were plated and grown on ½ Murashige and Skoog (MS) (Duchefa Biochemie, Haarlem, The Netherlands), 0.5 g/L 2-(N-morpholino)ethanesulfonic acid (MES, Sigma-Aldrich), 1% sucrose, 0.7% plant agar (Duchefa) growth medium plates (120×120 mm square petri-dishes; Gosselin) at pH 5.6 in vertical orientation at 23° C. with 16 h of light per day. […]
A custom reoriented macro confocal laser-scanning microscope with a vertical stage was used to acquire images (Bergman-Labora, Sweden). The macro confocal consisted of a horizontally placed AZ100 macroscope (Nikon, Japan) adapted with a specially built XYZ motorized stage (Prior Scientific fitted by Bergman-Labora) and supplied with diascopic white light and episcopic fluorescence light (Nikon). […] Excitation was at 488 nm and emission detected with a 525/50 filter. DII Venus fluorescence intensities from a single layer were normalized to initial intensity, averaged and compared (Standard deviation of the mean). […]

Experiment [2] deals with Arabidopsis thaliana seedlings (root apical meristem). Nature of the experiment: Root growth rate of A. thaliana seedlings during OEIP delivery. It is filed as in vivo. The note with it: for effect on root growth rate: OEIP delivery, 60 min, compared with non-targeted seedlings. The source says:
The dPG-based OEIPs were used for in vivo experiments on a highly accessible model plant system suitable for live-cell imaging in the intact organism. Specifically, the apical root meristem and early elongation zone of four-day-old Arabidoposis thaliana seedlings positioned on agar gel were targeted for delivery of IAA via the OEIP. Root tips were monitored using a horizontally oriented Nikon AZ100 spectral macro-confocal laser-scanning microscope system schematically illustrated in FIG. 3a. In this arrangement, seedlings were positioned and imaged vertically.
As a negative control, benzoic acid^15 was delivered by the OEIP device, operated in the same configuration.
To this end, seeds of both genotypes and wild-type Col-0 were surface sterilized with 70% ethanol for 1 min, incubated in pool cleaner (Biltema, Sweden; one tablet per 2000 ml H2O) for 12 min, and washed four times with sterile, distilled water (dH2O). After 3 days at 4° C. in the dark, seeds were plated and grown on ½ Murashige and Skoog (MS) (Duchefa Biochemie, Haarlem, The Netherlands), 0.5 g/L 2-(N-morpholino)ethanesulfonic acid (MES, Sigma-Aldrich), 1% sucrose, 0.7% plant agar (Duchefa) growth medium plates (120×120 mm square petri-dishes; Gosselin) at pH 5.6 in vertical orientation at 23° C. with 16 h of light per day. 12 h prior to the start of the experiments, 4 days post-germination (dpg) seedlings were positioned onto fresh plates of identical MS media composition additionally supplemented with 0.01 M KCl.
Immediately prior to the experiments, the OEIPs were operated in a target solution of 10^−5 M KCl(aq), and the OEIP device tip was kept from drying excessively during sample loading and OEIP positioning. A Keithley 2612b SourceMeter (Keithley Instruments Inc, Cleveland, Ohio, USA) and custom LabVIEW (National Instruments Corporation, Austin, Tex., USA) software was use to source current and record voltage. The OEIP device was turned on immediately prior to the first imaging sequence and operated at a constant electrical current of 1 μA. For these experiments, the OEIP delivery tip was submerged in the MS media in close proximity (100-200 μm) to the root epidermal tissue (FIG. 3b,c) and was held at a fixed position in the growth MS media for the duration of each trial.

For experiment [3], the system named is DR5rev:GFP auxin-response reporter. Nature of the experiment: DR5rev:GFP fluorescent auxin-response reporter seedlings, OEIP delivery to elongation zone. The experiment is classed as in vivo, Arabidopsis thaliana. Conditions: root elongation zone.
Text: A custom reoriented macro confocal laser-scanning microscope with a vertical stage was used to acquire images (Bergman-Labora, Sweden). The macro confocal consisted of a horizontally placed AZ100 macroscope (Nikon, Japan) adapted with a specially built XYZ motorized stage (Prior Scientific fitted by Bergman-Labora) and supplied with diascopic white light and episcopic fluorescence light (Nikon). A climate enclosure with passive humidification was designed to surround the stage area to keep plants in a humid, dark environment. The AZ100 macroscope was connected to a C2+ confocal laser scanning system (Nikon) equipped with lasers for 405 nm, 457/488/514 nm and 561 nm excitation and a transmitted light detector. […] Excitation was at 488 nm and emission detected with a 525/50 filter. DII Venus fluorescence intensities from a single layer were normalized to initial intensity, averaged and compared (Standard deviation of the mean). […]
For experiment [4] the following is noted: reported in literature (ref. 13); cited from earlier work.

As for `O=C(O)Cc1c[nH]c2ccccc12` [IAA, indole-3-acetic acid], in experiment [1] (DII-Venus seedlings, OEIP delivery), the “onset of strong fluorescence reduction” value was 30 to 60 min. The “effect on DII-Venus fluorescence intensity” value in experiment [1] is “strong and significant decrease in fluorescence”. For the same compound, the “root growth rate after 60 min of delivery” value in experiment [2] (OEIP delivery at 1 μA, average of 5 trials, after 60 min) was 2.4±0.7 μm min^−1. For the same compound, in experiment [2] (OEIP delivery at 1 μA, average of 5 trials, initial rate), the “root growth rate before the decrease” value turned out to be 4.7±1.0 μm min^−1. The “effect on root growth rate” value in experiment [2] is “rapid decrease in growth rate”. In experiment [3], the “effect on DR5 reporter fluorescent intensity” value is “signal continued to increase between 2 and 3 hours”; the “onset of fluorescence in plant tissues” value came to 1 h.

For the compound `O=C(O)c1ccccc1` [benzoic acid], the “effect on DII-Venus fluorescence intensity” value in experiment [1] is given as “preserved their fluorescence”. The “effect on root growth rate” value in experiment [2] is “maintained their growth rates”. In addition, the “effect on DR5 reporter fluorescent intensity” value in experiment [3] was “did not display alterations in fluorescent intensity”.

In the case of `O=C(O)CC1C(=O)Nc2ccccc21` (centres unmarked) [oxIAA, 2-oxindole-3-acetic acid], the “activity in previous bioassays” value in experiment [4] is “inactive”.
